Laboratory results published in publication PMC7595150, “Amorphous solid dispersions of enzalutamide and novel polysaccharide derivatives: investigation of relationships between polymer structure and performance” (Scientific Reports, 2020).
Values after ≈ are worked out from the molar mass of the structure shown. Marks after values point to notes of the source that are not given here.

Tests used:
[1] = cited from earlier work
Aqueous solubility = format: physicochemical
[2] = Nucleation induction time of supersaturated enzalutamide solutions with pre-dissolved polymer (UV dip probe); format: physicochemical; settings: absence of polymers; initial 70 μg/mL enzalutamide, pH 6.5 phosphate buffer, 37 °C
Protocol: The average time to detect the onset of crystallization for supersaturated solutions of enzalutamide was determined in phosphate buffer (pH 6.5, 50 mM) containing pre-dissolved polymer using an in situ UV dip probe as described by Mosquera-Giraldo et al.[11]. […] For enzalutamide the absorbance maximum is 237 nm and the baseline wavelength used was 446 nm. […] Next, a methanolic solution of enzalutamide (245 µL, 10 mg/mL) was added to the polymeric solution (35 mL) magnetically stirred at 300 rpm and maintained at 37 °C, leading to an initial enzalutamide concentration of 70 µg/mL. The experiments were performed in triplicate.

Supersaturation ratio (S, amorphous solubility/crystalline solubility) (Aqueous solubility): approximately 14.5 | solubility (Aqueous solubility; crystalline form): 2.9 µg/mL (≈ 6.24 µM) | Nucleation induction time [2]: ~ 15 min
Compound: CNC(=O)c1ccc(N2C(=S)N(c3ccc(C#N)c(C(F)(F)F)c3)C(=O)C2(C)C)cc1F [Enzalutamide]
Aqueous solubility (amorphous solubility) ([1]; amorphous solubility of the drug): 0.042^a mg/mL | Free drug molecularly dissolved ([1]; when 70 μg/mL enzalutamide is added to buffer, rest is colloidal amorphous aggregates): approximately 42 μg/mL
